In US20180325947A1, “USE OF MAPK INHIBITORS TO REDUCE LOSS OF HEMATOPOIETIC STEM CELLS DURING EX VIVO CULTURE AND/OR GENETIC MANIPULATION” (Children's Hospital Medical Center, priority 2015, published 2018):

Tests used:
[1] = tested on: human CD34+ 38- 90+ HSC enriched population; assay: cell cycle status of HSCs (Ki67 / Hoechst), flow cytometry; assay type: cell-based; settings: for G0 quiescent phase of untransduced and transduced HSCs: early time period of ex vivo culture
Procedure: Human MPB derived CD34^+ cells were cultured and transduced with lentivirus (LV) or retrovirus (RV) for the indicated time points. Representative Immunofluorescence images of sorted human CD34^+ 38^− 90^+ population treated with or without p38i for 72 hours stained with anti-γH2AX and 53BP1 (Panel A) and quantification of γ-H2AX (Panel B) and 53BP1 (Panel C) MFI/cell. Panel D: Representative histogram plot from flow cytometric analysis of CD34^+ 38^− 90^+ HSC enriched cells stained for γ-H2AX with or without p38 inhibitor (p38i) and quantification of fold change in mean fluorescence intensity (MFI) of γ-H2AX in HSCs (Panel E) and percent GH2AX^+ cells (Panel F) at indicated time period. Percentage shown in histograms are cells positive for γH2AX and the numbers below is mean fluorescent intensity (MFI) (n=5 independent experiments). FACS plot representing HSCs in G0 (Quiescent), G1, and S-G2-M phase of cell cycle with or without p38i (Panel G) and quantification (Panel H) of HSC enriched population at different cell cycle phase at indicated time of ex vivo culture. Percentage of (±SEM) Ki67^− (G0) and Ki67^+ (G1-S-G2-M) HSCs is depicted on the y-axis. (n=4 independent experiments for 24 h LV and n=5 independent experiments for 42 h LV and 72 h RV)). Statistics: paired Student's t test, *p<0.05, **p<0.01, ***p<0.001.
Human MPB derived CD34^+ cells were cultured and transduced as described in FIG. 17. Panel A: Quantification of γ-H2AX^+ CD34^+ 38^− 90^+ cells at 24, 42, & 72 hours. n=5-8 independent experiments/condition). Panel B: Quantification of immunofluorescence analysis for γ-H2AX (left) and 53BP1 (right) MFI per sorted human CD34^+ 38^− 90^+ cell with or without p38i for 42 hours. Panel C: Quantitative plot representing CD34^+ 38^− 90^+ cells in G0-G1, and S-G2-M phase of cell cycle with or without p38i at 42 hours of ex vivo culture and lentivirus (LV) transduction. (n=6 independent experiments/condition). Statistics: paired Student's t test, *p<0.05, **p<0.01, ***p<0.001. Statistics: Student's t test, *p<0.05, **p<0.01, ***p<[…].
Ki67, a nuclear antigen associated with cell proliferation, was used to determine cell cycle status via flow cytometry; negative stains were considered to represent quiescent HSCs.

[2] = tested on: human CD45+ cell engraftment in NSG mice; assay: primary transplant (1T) of cultured hCD34+ cells into NSG mice, hCD45+ engraftment in bone marrow; assay type: in vivo; settings: for hCD45+ cell engraftment in bone marrow of 1T mice: 24 weeks after primary transplant of cultured hCD34+ cells with/without inhibitor
Procedure: FIG. 2. A preclinical model for studying adult human HSC ex vivo manipulation and gene transfer and its effect on LTRP. (Panel A) Freshly isolated or thawed mobilized peripheral blood (MPB) derived CD34+ cells were utilized for the study. Two different protocols were utilized for the study where lentivirus (LV) or γ-Retrovirus (RV) mediated gene transfer was performed at indicated time points. 0 h, 18-24 h, 36-42 h, and 72-96 h indicates the total amount of time where cells were exposed in the ex vivo culture after CD34 isolation before injection into NSG mice. (Panel B) After indicated time in culture and transduction, 1 million CD34+ starting equivalent cells were transplanted per NSG mouse after TBI intravenously (primary transplant=1T). Primary human engraftment and multi-lineage reconstitution was analyzed in mice at indicated time periods after bone marrow harvest at 6 and 12 weeks (wks) from left and right femurs, and after sacrifice at 24 wks, from all bones. A portion of cells were analyzed for FACS and the rest were depleted of mouse CD45+ cells and transplanted one to one, into secondary mice (secondary transplant=2T).
Panel A: hCD45^+ cell engraftment in bone marrow of 1T mice at 24 weeks following transplant of cultured hCD34^+ cells with/without p38 inhibitor Birb796. Panel B: Number of 2T mice engrafted (>0.01% hCD45^+ cells in BM) are shown above the middle bar and those non-engrafted below.
A xenograft model was developed to study hHSC engraftment. In the xenograft model of adult human HSC, CD34^+ cells were derived and isolated from fresh MPB. The fresh CD34^+ cells were either directly transplanted into immunocompromised NSG mice or cultured with human cytokines and then transduced either with lentivirus or retrovirus. […] The multipotential human hematopoietic progeny (hCD45^+) following huCD34^+ transplant in NSG mice were then measured to confirm that the model human HSC engraftment from adult (mobilized peripheral blood) CD34^+ HSC/P that mimics the results observed in gene therapy clinical trials. […]

human CD34+38-90+ cells = assay: apoptosis, annexin V+ CD34+38-90+ cells; assay type: cell-based; settings: with or without p38i
Procedure: (§1) Human CD34^+ cells were cultured and transduced as described in FIG. 13, panel A. Harvested cells were stained with trypan blue for viability, total CD34+ cell number (Panel A), fold change in percent human CD34^+ 38^− 90^+ 45RA^− 49f^+ (HSCs) (Panel B), percent annexin V^+ (apoptotic) CD34^+38^− 90^+ cells (Panel C), fold change in transduction efficiency (based on GFP marker percentage) over non-treated CD34^+38^− 90^+ cells (Panel D), fold change in MitoSOX MFI in CD34^+38^− 90^+ cells are shown (Panel E). Data represents mean±SEM. Statistics: Student's t test, […], *p<0.05, **p<0.01, ***p<0.001.

[3] = tested on: human HSCs (CD34+ 38- 90+ 45RA- 49f+); assay: percent phenotypic hHSC in ex vivo cultured CD34+ cells, flow cytometry; assay type: cell-based; settings: for percent hHSCs ex vivo in culture: ex vivo culture up to 72 hours
Procedure: Four different p38 inhibitors all increase the percent hHSCs ex vivo in culture studies up to 72 hours.
as §1

human CD34+ cells = assay: total CD34+ cell number / viability, trypan blue; assay type: cell-based; settings: with or without p38i
Procedure: as §1

[4] = before the first HSC division (24 h)

SMILES: Cc1ccc(-n2nc(C(C)(C)C)cc2NC(=O)Nc2ccc(OCCN3CCOCC3)c3ccccc23)cc1 [BIRB-796, 1-[5-tert-butyl-2-(4-methylphenyl)pyrazol-3-yl]-3-[4-(2-morpholin-4-ylethoxy)naphthalen-1-yl]urea]
- effect on HSC cell cycle ([1]; after 24 h, as HSC progressed through cell cycle): lost
- proportion of HSC in the G0 quiescent phase [1, 4]: significantly increased
- proportion of HSC in the S-G2-M phase [1, 4]: decreased
- G0 quiescent phase of untransduced and transduced HSCs [1]: maintain
- G0 quiescent phase of untransduced and transduced HSCs ([1]; listed as p38i): retains
- human CD45+ cell engraftment in NSG BM, 1T ([2]; 24 weeks after 1T, 72-96 h LV and RV groups): slightly improved
- hCD45+ cell engraftment in bone marrow of 1T mice [2]: not affecting
- hCD45+ cell engraftment in bone marrow of 1T mice ([2]; listed as Birb796): significantly increases
- apoptosis in CD34+38-90+ population (human CD34+38-90+ cells): no difference
- human HSCs in vitro ([3]; at 400, 600 and 800 nm concentrations): appeared to increase
- percent hHSCs ex vivo in culture [3]: significant increase
- percent hHSCs ex vivo in culture ([3]; listed as p38i): increased
- loss of stem cells during in vitro or ex vivo culture ([3]; stem cells having undergone genetic manipulation that induces a DNA double strand break): successfully reduced
- total number of CD34+ cells or their viability (human CD34+ cells): no significant change
